# In US6864086B2, “Nitric oxide-scavenging system for culturing oocytes, embryos, or other cells” (Board of Supervisors of Louisiana State University and …, priority 1998, dated 2005):
# Marks after values point to notes of the source that are not given here.
# System: inseminated bovine oocytes co-cultured with cumulus-granulosa cells
# Assay: Example 5: Hb (1 μg/ml) added to mBECM-C at different times of co-culture with CGs
# Type: cell-based
# Settings: for No of embryos developed to the 2-cell / % of embryos developed to the 2-cell: examined 48 h; for No of embryos developed to the 8-cell / % of embryos developed to the 8-cell: examined 60 h; for No of embryos developed to the 16-cell / % of embryos developed to the 16-cell: examined 120 h; for No of embryos developed to the Morula / % of embryos developed to the Morula: examined 144 h; for No of embryos developed to the Blastocyst / % of embryos developed to the Blastocyst: examined 192 h
# Protocol: mBECM containing 10 μM β-mercaptoethanol was used to culture embryos, as described in J. Lim et al., “Roles of growth factors in the development of bovine embryos fertilized in vitro and cultured singly in a defined medium,” Reprod. Fertil. Dev., 8, 1199-1205 (1996). To culture individual 8-cell embryos we used mBECM supplemented with 1 ng/ml platelet derived growth factor type AB (PDGF; Upstate Biotechnology Inc., Lake Placid, N.Y.), 1 ng/ml transforming growth factor-β (TGF; R & D System, Minneapolis, Minn.), 50 ng/ml arachidonic acid (AA; Cayman Chemical Co., Ann Arbor, Mich.), 100 μM glutathione (GSH; Sigma Co.) and 1 mg/ml polyvinyl alcohol (PVA) (mBECM-S). mBECM to which 10% (v/v) FBS was added (mBECM-C) was used for co-culturing inseminated zygotes with CGs and for producing 8-cell embryos. Osmolarity of the medium was maintained within the range of 265-290 mOsm.
# The bovine cumulus-oocyte complexes (COCs) used were collected in Madison, Wis. (BOMED, Inc.), and were shipped in 2-ml of maturation medium in a battery powered incubator via overnight express mail service. Oocytes matured during transit and arrived within 24 h after exposure to maturation medium, pre-equilibrated at 39° C. in 5% CO2 in air. At 22-24 h after exposure to the medium, the COCs were inseminated in vitro as described in J. Lim et al., “Intracytoplasmic glutathione concentration and the role of β-mercaptoethanol in preimplantation development of bovine embryos,” Theriogenology, 46, 429-439 (1996). At 18 h post-insemination, COCs were cultured in groups (30-35 embryos) in a 4-well multidish (Nunc, Roskilde, Denmark) containing 0.8-ml of mBECM-C. Embryos were dislodged from CGs at 36-48 h post-insemination.
# In Example 1, embryos (83-85 per group) collected 18 h post-insemination were cultured in mBECM-C, to which 0, 0.008, or 0.04 mM SNP was added at 18 or 60 h post-insemination. In Example 2, 8-cell embryos (80 per group) were produced in a co-culture system containing CGs and mBECM-C, and then beginning at 60 h post-insemination were cultured singly in a defined culture medium (mBECM-S), to which 0, 0.0016, 0.008, or 0.04 mM of SNP (S-0501, Sigma Co.) was added. In Example 3 embryos, either uncleaved (n=99) or developed to the 2-cell stage (90), were collected 48 h post-insemination; and cleaved embryos, either developed to the morula stage (69) or degenerate (63) were collected 144 h post-insemination. NO metabolites were then measured in the embryos. In Example 4, three groups of 95 zygotes each were co-cultured with CGs in mBECM-C, to which 0, 1, or 10 μg/ml Hb (bovine, mainly methemoglobin, H-2500, Sigma Co.) was added. […] In Example 6, inseminated oocytes (93 per group) were cultured in the presence or absence of CGs in mBECM-C to which either 0 or 1 μg/ml Hb was added. In Example 7, 8-cell embryos (100 per group), obtained after culture in mBECM-C supplemented with Hb (1 μg/ml), were cultured singly in mBECM-S, with or without Hb.
# Oocytes or 8-cell embryos were randomly and equally allocated to each treatment group. In Examples 1, 2, and 4-7, oocytes or embryos that had developed to the 2-cell, 8-cell, >8-cell, 16-cell morula, and blastocyst stages were individually scored ‘1’ (developed) at 48, 60, 96, 120, 144 and 192 h post-insemination, respectively. […] Sums of the scores in each stage of development were evaluated by analysis of variance (ANOVA) using the general linear model (PROC-GLM) in the SAS program software. In Example 3, concentrations of NO metabolites in embryos were subjected to ANOVA. […] Differences were regarded as statistically significant where P values were less than 0.05.
# [1] = Hb 1 μg/ml added 18 h post-insemination (1-cell)
# [2] = Hb 1 μg/ml added 18 h post-insemination (1-cell), 104 oocytes
# [3] = Hb 1 μg/ml added 60 h post-insemination (8-cell)
# [4] = Hb 1 μg/ml added 60 h post-insemination (8-cell), 104 oocytes
# [5] = Hb 1 μg/ml added 144 h post-insemination (Morula)
# [6] = Hb 1 μg/ml added 144 h post-insemination (Morula), 103 oocytes
substance,measurement,setting,value
hemoglobin [Hb],Ratio of blastocysts to morulae,[1],0.74
same,No of embryos developed to the 2-cell,[2],76
same,No of embryos developed to the 8-cell,[2],52
same,No of embryos developed to the 16-cell,[2],45
same,No of embryos developed to the Morula,[2],34
same,No of embryos developed to the Blastocyst,[2],25
same,% of embryos developed to the 2-cell,[1],73%
same,% of embryos developed to the 8-cell,[1],50%
same,% of embryos developed to the 16-cell,[1],43%
same,% of embryos developed to the Morula,[1],33%
same,% of embryos developed to the Blastocyst,[1],24%
same,Ratio of blastocysts to morulae,[3],1.00
same,No of embryos developed to the 2-cell,[4],67
same,No of embryos developed to the 8-cell,[4],40
same,No of embryos developed to the 16-cell,[4],35
same,No of embryos developed to the Morula,[4],30
same,No of embryos developed to the Blastocyst,[4],30
same,% of embryos developed to the 2-cell,[3],64%
same,% of embryos developed to the 8-cell,[3],38%
same,% of embryos developed to the 16-cell,[3],34%
same,% of embryos developed to the Morula,[3],29%
same,% of embryos developed to the Blastocyst,[3],29%
same,Ratio of blastocysts to morulae,[5],0.96
same,No of embryos developed to the 2-cell,[6],64
same,No of embryos developed to the 8-cell,[6],34
same,No of embryos developed to the 16-cell,[6],28
same,No of embryos developed to the Morula,[6],23
same,No of embryos developed to the Blastocyst,[6],"22 (22)^c,d"
same,% of embryos developed to the 2-cell,[5],62%
same,% of embryos developed to the 8-cell,[5],33%
same,% of embryos developed to the 16-cell,[5],27%
same,% of embryos developed to the Morula,[5],22%
same,% of embryos developed to the Blastocyst,[5],"22 (22)^c,d %"
same,proportion of blastocysts,"Hb 1 μg/ml added at 18 or 60 h post-insemination, controls 13%",24-29%
